Measurements taken from patent publication US20110045101A1, “FUNGICIDAL SUBSTITUTED AZOLES” (E.I. Du Pont De Nemours and Company, priority 2009, published 2011).
Marks after values point to notes of the source that are not given here.

Key:
Format in all cases: in vivo
Conditions in all cases: 100 = 100% disease control
[1] = test system: Puccinia recondita f. sp. tritici; experiment: Test H: wheat leaf rust, test suspension sprayed after inoculation of wheat seedlings, visual disease rating
Procedure, shortened: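 Wheat seedlings inoculated with P. recondita spores, held 24 h saturated at 20 °C, then 2 days in growth chamber at 20 °C; compound suspension (acetone/water with Trem 014) sprayed to run-off afterwards. Rated visually; 200 ppm (≈500 g/ha) unless marked *, which denotes 40 ppm.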

[2] = test system: Botrytis cinerea; experiment: Test C: tomato Botrytis on tomato seedlings, sprayed the day before inoculation, visual disease rating
Procedure, shortened: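 Disease scored by eye on tomato seedlings inoculated with Botrytis cinerea a day after treatment. Treatment was a run-off spray at 200 ppm (equivalent to 500 g/ha), or 40 ppm where marked, in acetone/water carrying 250 ppm Trem 014.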

[3] = test system: Septoria nodorum; experiment: Test F: wheat glume blotch on wheat seedlings, sprayed the day before inoculation, visual disease rating
Procedure, shortened: (§1)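 Ratings reflect a 200 ppm spray (≈500 g/ha) unless marked as 40 ppm. Plants were sprayed to run-off. The spray suspension was acetone/purified water 50/50 containing 250 ppm Trem 014, after first dissolving compound in acetone at 3% of final volume.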

[4] = test system: Septoria tritici; experiment: Test G: wheat leaf blotch on wheat seedlings, sprayed the day before inoculation, visual disease rating
Procedure, shortened: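 Wheat seedlings were sprayed to run-off with test suspension (acetone/water plus surfactant), generally 200 ppm (≈500 g/ha), or 40 ppm where marked. Septoria tritici spores were inoculated the next day; plants were held 48 h at 24°C in saturated atmosphere, then 19 days at 20°C before visual disease rating.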

[5] = test system: Erysiphe graminis f. sp. tritici; experiment: Test J: wheat powdery mildew on wheat seedlings, sprayed the day before inoculation, visual disease rating
Procedure, shortened: as §1

[6] = test system: Puccinia recondita f. sp. tritici; experiment: Test I: wheat leaf rust on wheat seedlings, sprayed the day before inoculation, visual disease rating
Procedure, shortened: as §1

[7] = test system: Alternaria solani; experiment: Test D: tomato early blight, sprayed the day before inoculation, visual disease rating
Procedure, shortened: as §1

[8] = 200 ppm, 0 = no control relative to controls
[9] = 40 ppm (marked *), 0 = no control

Row | SMILES | Test H disease control rating [1, 8] | Test C disease control rating [2, 8] | Test F disease control rating [3, 8] | Test G disease control rating [4, 8] | Test J disease control rating [5, 8] | Test I disease control rating [6, 8] | Test D disease control rating [7, 8] | also measured
1 | Fc1cccc(F)c1-c1c(Cl)nc(CCl)n1-c1ccc2c(c1)OCCO2 [compound 469] |  |  |  |  |  |  |  | Test H disease control rating ([1]; 40 ppm (marked *)): 0* %; Test C disease control rating ([2]; 40 ppm (marked *)): 65* %; Test F disease control rating ([3]; 40 ppm (marked *)): 0* %; Test G disease control rating ([4]; 40 ppm (marked *)): 79* %; Test J disease control rating ([5]; 40 ppm (marked *)): 0* %; Test I disease control rating ([6]; 40 ppm (marked *)): 81* %; Test D disease control rating ([7]; 40 ppm (marked *)): 0* %
2 | Cc1nc(Cl)c(-c2c(F)cccc2F)n1-c1ccc(SCCl)cc1 [compound 529] | 9% | 0% | 0% | 82% | 0% | 48% | 0% | 
3 | COc1cc(F)c(-c2c(O)nc(C)n2-c2ccc(Cl)cc2)c(F)c1 [compound 672] | 0% | 96% | 0% | 87% | 0% | 0% | 0% | 
4 | COc1cc(F)c(-c2c(Cl)nc(Cl)n2-c2cccc(OC(F)(F)F)c2)c(F)c1 [compound 567] | 7% | 99% | 0% | 94% | 100% | 99% | 67% | 
5 | COc1cc(F)c(-c2c(Cl)nc(Cl)n2-c2ccc(OC(F)F)cc2)c(F)c1 [compound 566] | 97% | 100% | 100% | 97% | 100% | 100% | 100% | 
6 | COc1cc(F)c(-n2c(C)nc(Cl)c2-c2ccc(Cl)cc2)c(F)c1 [compound 423] |  |  |  |  |  |  |  | Test H disease control rating [1, 9]: 0* %; Test C disease control rating [2, 9]: 100* %; Test F disease control rating [3, 9]: 69* %; Test G disease control rating [4, 9]: 94* %; Test J disease control rating [5, 9]: 99* %; Test I disease control rating [6, 9]: 91* %; Test D disease control rating [7, 9]: 0* %
7 | COc1cc(F)c(-n2cnc(C)c2-c2ccc(C)cc2)c(F)c1 [compound 560] |  |  |  |  |  |  |  | Test H disease control rating ([1]; 40 ppm (marked *)): 33* %; Test C disease control rating ([2]; 40 ppm (marked *)): 99* %; Test F disease control rating ([3]; 40 ppm (marked *)): 0* %; Test G disease control rating ([4]; 40 ppm (marked *)): 65* %; Test J disease control rating ([5]; 40 ppm (marked *)): 93* %; Test I disease control rating ([6]; 40 ppm (marked *)): 79* %; Test D disease control rating ([7]; 40 ppm (marked *)): 0* %
8 | COC(=O)c1ccc(-n2c(Br)nc(Cl)c2-c2c(F)cccc2F)cc1 [compound 690] | 0% | 78% | 0% | 98% | 81% | 74% | 0% | 
9 | Fc1ccc(-n2c(Br)nc(Cl)c2-c2ccc(Cl)cc2)c(Cl)c1 [compound 329] | 0% | 99% | 0% | 94% | 99% | 90% | 99% | 
10 | Cc1ncn(-c2ccc(Cl)c(F)c2)c1-c1cncc(Br)c1 [compound 346] | 9% | 99% | 0% | 38% | 0% | 9% | 0% | 
11 | CC(=O)Nc1ccc(-n2c(Cl)nc(Cl)c2-c2c(F)cccc2F)cc1Cl [compound 636] |  |  |  |  |  |  |  | Test H disease control rating ([1]; 40 ppm (marked *)): 0* %; Test C disease control rating ([2]; 40 ppm (marked *)): 90* %; Test F disease control rating ([3]; 40 ppm (marked *)): 0* %; Test G disease control rating ([4]; 40 ppm (marked *)): 95* %; Test J disease control rating ([5]; 40 ppm (marked *)): 0* %; Test I disease control rating ([6]; 40 ppm (marked *)): 52* %; Test D disease control rating ([7]; 40 ppm (marked *)): 24* %
12 | COc1cc(F)c(-c2c(Cl)nc(Br)n2-c2ccc(C)c(Cl)c2)c(F)c1 [compound 542] |  |  |  |  |  |  |  | Test H disease control rating ([1]; 40 ppm (marked *)): 0* %; Test C disease control rating ([2]; 40 ppm (marked *)): 99* %; Test F disease control rating ([3]; 40 ppm (marked *)): 0* %; Test G disease control rating ([4]; 40 ppm (marked *)): 97* %; Test J disease control rating ([5]; 40 ppm (marked *)): 89* %; Test I disease control rating ([6]; 40 ppm (marked *)): 98* %; Test D disease control rating ([7]; 40 ppm (marked *)): 96* %
13 | Cc1nc(Br)c(Cc2c(F)cc(F)cc2F)n1-c1ccc(Cl)cc1 [compound 532] | 0% | 97% | 0% | 99% | 91% | 99% | 0% | 
14 | Cc1nc(Cl)c(-c2c(F)cc(F)cc2F)n1-c1cccc(OC(F)F)c1 [compound 609] | 100% | 99% | 100% | 99% | 100% | 100% | 100% | 
15 | COc1ccc(Cl)c(-c2c(Cl)nc(C)n2-c2ccc(Cl)cc2)c1F [compound 550] | 0% | 100% | 100% | 97% | 100% | 99% | 100% | 
16 | COc1ccc(F)c(-c2c(Cl)nc(Br)n2-c2ccc(Br)cc2)c1F [compound 563] | 0% | 100% | 100% | 100% | 100% | 94% | 100% | 
17 | Cc1nc(Br)c(-c2c(F)cccc2F)n1-c1ccc2ccccc2c1 [compound 336] |  |  |  |  |  |  |  | Test H disease control rating [1, 9]: 0* %; Test C disease control rating [2, 9]: 99* %; Test F disease control rating [3, 9]: 99* %; Test G disease control rating [4, 9]: 96* %; Test J disease control rating [5, 9]: 87* %; Test I disease control rating [6, 9]: 74* %; Test D disease control rating [7, 9]: 88* %
18 | Fc1cccc(-n2cnc(Cl)c2-c2c(F)ccc(F)c2F)c1 [compound 364] | 0% | 100% | 0% | 58% | 83% | 98% | 100% | 
19 | Cc1nc(Br)n(-c2ccc(Cl)nc2)c1-c1c(F)ccc(C#N)c1F [compound 715] | 100% | 100% | 78% | 99% | 73% | 99% | 100% | 
20 | Cc1nc(C)n(-c2ccc(F)cc2)c1-c1c(F)ccc(F)c1F [compound 417] |  |  |  |  |  |  |  | Test H disease control rating [1, 9]: 9* %; Test C disease control rating [2, 9]: 100* %; Test F disease control rating [3, 9]: 0* %; Test G disease control rating [4, 9]: 89* %; Test J disease control rating [5, 9]: 94* %; Test I disease control rating [6, 9]: 9* %; Test D disease control rating [7, 9]: 99* %
